Data: PubChem BioAssay AID1259407 (Chemical Carcinogenesis Research Information System (CCRIS), 2018)
Calls of active or inactive are those of the source. How the calls were made is not given here.

System: CCRIS mutagenicity, Ames/micronucleus/aberration tests
Experiment: CCRIS mutagenicity studies
[1] = Test System: AMES SALMONELLA TYPHIMURIUM, Strain/Indicator: TA100, Metabolic Activation: NONE, Method: PREINCUBATION
[2] = Test System: AMES SALMONELLA TYPHIMURIUM, Strain/Indicator: TA98, Metabolic Activation: NONE, Method: STANDARD PLATE
[3] = Test System: AMES SALMONELLA TYPHIMURIUM, Strain/Indicator: TA98, Metabolic Activation: RAT, LIVER, S-9, AROCLOR 1254, Method: STANDARD PLATE
[4] = Test System: AMES SALMONELLA TYPHIMURIUM, Strain/Indicator: TA100, Metabolic Activation: NONE, Method: STANDARD PLATE
[5] = Test System: AMES SALMONELLA TYPHIMURIUM, Strain/Indicator: TA100, Metabolic Activation: RAT, LIVER, S-9, AROCLOR 1254, Method: STANDARD PLATE

SMILES: O=C(O)C(Br)Br
- mutagenic call (End Point: Ames Salmonella typhimurium, Test System: TA98, Metabolic Activation: Hamster, liver, S-9, Aroclor 1254, Method: Preincubation): inactive; negative
- mutagenic call (End Point: Ames Salmonella typhimurium, Test System: TA100, Metabolic Activation: Hamster, liver, S-9, Aroclor 1254, Method: Preincubation): active; positive
- mutagenic call (End Point: In vivo micronucleus, Test System: Peripheral blood erythrocytes, Species: Mouse, Strain/Sex: B6C3F1/Female, Route: Oral (drinking water)): inactive; negative (for increased frequencies of micronucleated normochromatic erythrocyte
- mutagenic call (End Point: In vivo micronucleus, Test System: Peripheral blood erythrocytes, Species: Mouse, Strain/Sex: B6C3F1/Male, Route: Oral (drinking water)): inactive; positive (for increased frequencies of micronucleated normochromatic erythrocyte
- mutagenic call (Test System: AMES SALMONELLA TYPHIMURIUM, Strain/Indicator: RSJ100, Metabolic Activation: NONE, Method: PREINCUBATION): inactive; negative
- mutagenic call (Test System: AMES SALMONELLA TYPHIMURIUM, Strain/Indicator: RSJ100, Metabolic Activation: RAT LIVER S-9, Method: PREINCUBATION): inactive; negative
- mutagenic call (Test System: AMES SALMONELLA TYPHIMURIUM, Strain/Indicator: TA98, Metabolic Activation: RAT LIVER S-9, Method: PREINCUBATION): active; positive
- mutagenic call (Test System: AMES SALMONELLA TYPHIMURIUM, Strain/Indicator: TA98, Metabolic Activation: RAT, LIVER, S-9, PHENOBARBITAL AND 5,6-BENZOFLAVONE, Method: PREINCUBATION): inactive; negative
- mutagenic call (Test System: AMES SALMONELLA TYPHIMURIUM, Strain/Indicator: TA100, Metabolic Activation: NONE, Method: FLUCTUATION TEST): active; positive
- mutagenic call [1]: active; positive
- mutagenic call (Test System: AMES SALMONELLA TYPHIMURIUM, Strain/Indicator: TA100, Metabolic Activation: RAT LIVER S-9, Method: PREINCUBATION): active; positive
- mutagenic call (Test System: AMES SALMONELLA TYPHIMURIUM, Strain/Indicator: TA100, Metabolic Activation: RAT, LIVER, S-9, AROCLOR 1254, Method: FLUCTUATION TEST): active; positive
- mutagenic call (Test System: AMES SALMONELLA TYPHIMURIUM, Strain/Indicator: TA100, Metabolic Activation: RAT, LIVER, S-9, PHENOBARBITAL AND 5,6-BENZOFLAVONE, Method: PREINCUBATION): active; positive
- mutagenic call (Test System: Ames Salmonella typhimurium, Strain/Indicator: TA98, Metabolic Activation: None, Method: Preincubation): inactive; negative
- mutagenic call (Test System: Ames Salmonella typhimurium, Strain/Indicator: TA98, Metabolic Activation: Rat, liver, S-9, Aroclor 1254, Method: Preincubation): inactive; negative
- mutagenic call (Test System: Ames Salmonella typhimurium, Strain/Indicator: TA100, Metabolic Activation: None, Method: Preincubation): active; positive
- mutagenic call (Test System: Ames Salmonella typhimurium, Strain/Indicator: TA100, Metabolic Activation: Rat, liver, S-9, Aroclor 1254, Method: Preincubation): active; positive

SMILES: C#CCc1ccc(COC(=O)C2C(C=C(C)C)C2(C)C)o1 (stereo not drawn)
- mutagenic call (Test System: AMES SALMONELLA TYPHIMURIUM, Strain/Indicator: TA98): inactive; negative
- mutagenic call (Test System: AMES SALMONELLA TYPHIMURIUM, Strain/Indicator: TA98, Metabolic Activation: NONE): inactive; negative
- mutagenic call (Test System: AMES SALMONELLA TYPHIMURIUM, Strain/Indicator: TA100): active; positive
- mutagenic call (Test System: AMES SALMONELLA TYPHIMURIUM, Strain/Indicator: TA100, Metabolic Activation: NONE): inactive; negative

SMILES: O=c1c(Cl)c(Cl)cnn1S(=O)(=O)c1ccc(Cl)cc1
- mutagenic call [2]: inactive; negative
- mutagenic call [3]: inactive; negative
- mutagenic call [4]: inactive; negative
- mutagenic call [5]: inactive; negative
- mutagenic call (Test System: AMES SALMONELLA TYPHIMURIUM, Strain/Indicator: TA1535, Metabolic Activation: NONE, Method: STANDARD PLATE): inactive; negative
- mutagenic call (Test System: AMES SALMONELLA TYPHIMURIUM, Strain/Indicator: TA1535, Metabolic Activation: RAT, LIVER, S-9, AROCLOR 1254, Method: STANDARD PLATE): inactive; negative
- mutagenic call (Test System: AMES SALMONELLA TYPHIMURIUM, Strain/Indicator: TA1537, Metabolic Activation: NONE, Method: STANDARD PLATE): inactive; negative
- mutagenic call (Test System: AMES SALMONELLA TYPHIMURIUM, Strain/Indicator: TA1537, Metabolic Activation: RAT, LIVER, S-9, AROCLOR 1254, Method: STANDARD PLATE): inactive; negative

SMILES: Cc1cccc2c1ccc1cc(C(C)C)ccc12
- mutagenic call [4]: inactive; negative
- mutagenic call [5]: inactive; negative

SMILES: CNc1nncc2ccccc12
- mutagenic call [4]: active; positive
- mutagenic call (Test System: AMES SALMONELLA TYPHIMURIUM, Strain/Indicator: TA100, Metabolic Activation: RAT, LIVER, S-9, PHENOBARBITAL, Method: STANDARD PLATE): active; positive
- mutagenic call (Test System: UDS RAT HEPATOCYTES, Strain/Indicator: THY INCORP, Metabolic Activation: NONE, Method: AUTORADIOGRAPHY): active; positive
- mutagenic call (Test System: UDS RODENT HEPATOCYTES, Strain/Indicator: THY INCORP (NON-S-PHASE), Metabolic Activation: HOST-MEDIATED, Method: IN VIVO-IN VITRO): inactive; negative

SMILES: CC1(C)CC(N=C=O)CC(C)(CN=C=O)C1 (stereo not drawn)
- mutagenic call (Test System: AMES SALMONELLA TYPHIMURIUM, Strain/Indicator: TA98, Metabolic Activation: HAMSTER, LIVER, S-9, AROCLOR 1254 (10%), Method: PREINCUBATION): inactive; negative
- mutagenic call (Test System: AMES SALMONELLA TYPHIMURIUM, Strain/Indicator: TA98, Metabolic Activation: NONE, Method: PREINCUBATION): inactive; negative
- mutagenic call (Test System: AMES SALMONELLA TYPHIMURIUM, Strain/Indicator: TA98, Metabolic Activation: RAT, LIVER, S-9, AROCLOR 1254 (10%), Method: PREINCUBATION): inactive; negative
- mutagenic call (Test System: AMES SALMONELLA TYPHIMURIUM, Strain/Indicator: TA100, Metabolic Activation: HAMSTER, LIVER, S-9, AROCLOR 1254 (10%), Method: PREINCUBATION): inactive; negative
- mutagenic call [1]: inactive; negative
- mutagenic call (Test System: AMES SALMONELLA TYPHIMURIUM, Strain/Indicator: TA100, Metabolic Activation: RAT, LIVER, S-9, AROCLOR 1254 (10%), Method: PREINCUBATION): inactive; negative
- mutagenic call (Test System: AMES SALMONELLA TYPHIMURIUM, Strain/Indicator: TA1535, Metabolic Activation: HAMSTER, LIVER, S-9, AROCLOR 1254 (10%), Method: PREINCUBATION): inactive; negative
- mutagenic call (Test System: AMES SALMONELLA TYPHIMURIUM, Strain/Indicator: TA1535, Metabolic Activation: NONE, Method: PREINCUBATION): inactive; negative
- mutagenic call (Test System: AMES SALMONELLA TYPHIMURIUM, Strain/Indicator: TA1535, Metabolic Activation: RAT, LIVER, S-9, AROCLOR 1254 (10%), Method: PREINCUBATION): inactive; negative
- mutagenic call (Test System: AMES SALMONELLA TYPHIMURIUM, Strain/Indicator: TA1537, Metabolic Activation: HAMSTER, LIVER, S-9, AROCLOR 1254 (10%), Method: PREINCUBATION): inactive; negative
- mutagenic call (Test System: AMES SALMONELLA TYPHIMURIUM, Strain/Indicator: TA1537, Metabolic Activation: NONE, Method: PREINCUBATION): inactive; negative
- mutagenic call (Test System: AMES SALMONELLA TYPHIMURIUM, Strain/Indicator: TA1537, Metabolic Activation: RAT, LIVER, S-9, AROCLOR 1254 (10%), Method: PREINCUBATION): inactive; negative

SMILES: CC[C@H]1OC(=O)[C@H](C)[C@@H](O[C@H]2C[C@@](C)(OC)[C@@H](O)[C@H](C)O2)[C@H](C)[C@@H](O[C@@H]2O[C@H](C)C[C@H](N(C)C)[C@H]2O)[C@](C)(O)C[C@@H](C)[C@@H]2N[C@@H](COCCOC)O[C@H]([C@H]2C)[C@]1(C)O
- mutagenic call (End Point: In vitro chromosomal aberrations, Test System: Chinese hamster lung (CHL) cells, Metabolic Activation: None): inactive; negative
- mutagenic call (End Point: In vitro chromosomal aberrations, Test System: Chinese hamster lung (CHL) cells, Metabolic Activation: S-9): inactive; negative

SMILES: O[C@H]1C=Cc2c(ccc3c4c5c(cccc5cc23)C=C4)[C@@H]1O
- mutagenic call [2]: inactive; negative
- mutagenic call (Test System: AMES SALMONELLA TYPHIMURIUM, Strain/Indicator: TA98, Metabolic Activation: RAT, LIVER, S-9, AROCLOR 1254 (0.4, 0.8, 1.15 OR 1.5 MG/PLATE), Method: STANDARD PLATE): active; positive
- mutagenic call [3]: active; positive

SMILES: COc1ccnc(=O)[nH]1
- mutagenic call [4]: active; positive
